Reference: ChEMBL document CHEMBL1208736, “Synthesis of highly functionalized 2,4-diaminoquinazolines as anticancer and anti-HIV agents” (Bioorg Med Chem Lett, 2010)
Converted amounts (≈) assume the structure as drawn.

How the values were obtained:
[1] = test system: SK-OV-3; assay: Cytotoxicity against human SKOV3 cells by MTT assay; assay type: functional, cell-based
[2] = test system: HL-60; assay: Cytotoxicity against human HL60 cells by MTT assay; assay type: functional, cell-based
[3] = test system: A-431; assay: Cytotoxicity against human A431 cells by MTT assay; assay type: functional, cell-based
[4] = test system: A549; assay: Cytotoxicity against human A549 cells by MTT assay; assay type: functional, cell-based
[5] = test system: HepG2; assay: Cytotoxicity against human HepG2 cells by MTT assay; assay type: functional, cell-based
[6] = Cytotoxicity against human C8166 cells after 3 days by MTT assay; assay type: cell-based
[7] = test system: Human immunodeficiency virus 1; assay: Antiviral activity against HIV1 3B infected in human C8166 cells assessed as inhibition of viral replication; assay type: functional, organism-based; details: Human immunodeficiency virus 1, 3B
[8] = Therapeutic index, ratio of CC50 for human C8166 cells to EC50 for HIV1 3B; assay type: cell-based; details: read-out: Ratio CC50/EC50

N#Cc1c(Cl)c(Cl)c2nc(N)nc(N)c2c1Cl gave an IC50 [1] of 1.3 µg/mL (≈ 4.51 µM), an IC50 [2] of 19 µg/mL (≈ 65.9 µM) and an IC50 [3] of 3.3 µg/mL (≈ 11.4 µM). It also gave an IC50 [4] of 29.7 µg/mL (≈ 103 µM), an IC50 [5] of 2.5 µg/mL (≈ 8.66 µM) and a CC50 at 72 h [6] of 14.3 µg/mL (≈ 49.6 µM). It also gave an EC50 [7] of 1 µg/mL (≈ 3.47 µM) and a selectivity ratio [8] of 8.

For CCN(CC)c1c(C#N)c(F)c2c(N)nc(N)nc2c1Cl, the IC50 [1] was 0.4 µg/mL (≈ 1.3 µM), the IC50 [2] was 2.3 µg/mL (≈ 7.45 µM) and the IC50 [3] was 7.3 µg/mL (≈ 23.6 µM). The IC50 [4] was 7.1 µg/mL (≈ 23 µM) and the IC50 [5] was 2 µg/mL (≈ 6.48 µM).

In the case of CCN(CC)c1c(C#N)c(F)c2c(N)nc(N)nc2c1F, the IC50 [1] is reported as 1 µg/mL (≈ 3.42 µM), the IC50 [2] is reported as 6.4 µg/mL (≈ 21.9 µM) and the IC50 [3] is reported as 16.4 µg/mL (≈ 56.1 µM). For the same compound, the IC50 [4] was 26.5 µg/mL (≈ 90.7 µM) and the IC50 [5] was 1.3 µg/mL (≈ 4.45 µM).

In the case of N#Cc1c(Oc2ccccc2)c(Cl)c2nc(N)nc(N)c2c1Oc1ccccc1, the IC50 [1] is reported as 14 µg/mL (≈ 34.7 µM), the IC50 [2] is reported as 88 µg/mL (≈ 218 µM) and the IC50 [3] is reported as > 1000 µg/mL. For the same compound, the IC50 [4] was > 1000 µg/mL and the IC50 [5] was > 1000 µg/mL.

With Cc1cn([C@H]2C[C@H](N=[N+]=[N-])[C@@H](CO)O2)c(=O)[nH]c1=O [ZIDOVUDINE] the EC50 [7] was 0.004 µg/mL (≈ 0.015 µM) and the selectivity ratio [8] was 286000.

With N#Cc1c(Nc2ccccc2)c(Cl)c2nc(N)nc(N)c2c1F the IC50 [1] was 3.7 µg/mL (≈ 11.3 µM), the IC50 [2] was 47 µg/mL (≈ 143 µM) and the IC50 [3] was 4.8 µg/mL (≈ 14.6 µM). For the same compound, the IC50 [4] was > 1000 µg/mL, the IC50 [5] was 5.9 µg/mL (≈ 17.9 µM) and the CC50 at 72 h [6] was 6.3 µg/mL (≈ 19.2 µM). It also gave an EC50 [7] of 0.4 µg/mL (≈ 1.22 µM) and a selectivity ratio [8] of 13.5.

For N#Cc1c(Sc2ccccc2)c(Cl)c2nc(N)nc(N)c2c1Sc1ccccc1, the IC50 [1] was 9.4 µg/mL (≈ 21.6 µM), the IC50 [2] was 26 µg/mL (≈ 59.6 µM) and the IC50 [3] was 32.4 µg/mL (≈ 74.3 µM). For the same compound, the IC50 [4] was > 1000 µg/mL, the IC50 [5] was 5 µg/mL (≈ 11.5 µM) and the CC50 at 72 h [6] was 46.8 µg/mL (≈ 107 µM). The EC50 [7] was 3.2 µg/mL (≈ 7.34 µM) and the selectivity ratio [8] was 10.6.

Compound N#Cc1c(Nc2ccc(Cl)cc2)c(F)c2nc(N)nc(N)c2c1F has an IC50 [1] of 4.8 µg/mL (≈ 13.8 µM), an IC50 [2] of 35 µg/mL (≈ 101 µM) and an IC50 [3] of 4.5 µg/mL (≈ 13 µM). For the same compound, the IC50 [4] was 115 µg/mL (≈ 332 µM) and the IC50 [5] was 1 µg/mL (≈ 2.88 µM).

In the case of N#Cc1c(F)c(F)c2nc(N)nc(N)c2c1F, the IC50 [1] is reported as 8 µg/mL (≈ 33.5 µM), the IC50 [2] is reported as 51 µg/mL (≈ 213 µM) and the IC50 [3] is reported as 105 µg/mL (≈ 439 µM). The IC50 [4] was > 1000 µg/mL, the IC50 [5] was 5 µg/mL (≈ 20.9 µM) and the CC50 at 72 h [6] was 36.4 µg/mL (≈ 152 µM). The EC50 [7] was 0.6 µg/mL (≈ 2.51 µM) and the selectivity ratio [8] was 59.6.

COc1ccc(Nc2c(C#N)c(F)c3c(N)nc(N)nc3c2Cl)cc1 showed an IC50 [1] of 1.6 µg/mL (≈ 4.46 µM), an IC50 [2] of 2.2 µg/mL (≈ 6.13 µM) and an IC50 [3] of 5.1 µg/mL (≈ 14.2 µM). For the same compound, the IC50 [4] was 103 µg/mL (≈ 287 µM) and the IC50 [5] was 10.2 µg/mL (≈ 28.4 µM).

For N#Cc1c(Nc2ccccc2)c(F)c2nc(N)nc(N)c2c1F, the IC50 [1] was 6.5 µg/mL (≈ 20.8 µM), the IC50 [2] was 40 µg/mL (≈ 128 µM) and the IC50 [3] was 7 µg/mL (≈ 22.4 µM). The IC50 [4] was > 1000 µg/mL, the IC50 [5] was 1.4 µg/mL (≈ 4.48 µM) and the CC50 at 72 h [6] was 6.9 µg/mL (≈ 22.1 µM). It also gave an EC50 [7] of 0.2 µg/mL (≈ 0.64 µM) and a selectivity ratio [8] of 16.3.

Work on N#Cc1c(N)c(Cl)c2nc(N)nc(N)c2c1Cl yielded an IC50 [1] of 0.8 µg/mL (≈ 2.97 µM), an IC50 [2] of 6.7 µg/mL (≈ 24.9 µM) and an IC50 [3] of 9.5 µg/mL (≈ 35.3 µM). The IC50 [4] was 188 µg/mL (≈ 699 µM) and the IC50 [5] was 3.7 µg/mL (≈ 13.7 µM).

With N#Cc1c(NCc2ccccc2)c(Cl)c2nc(N)nc(N)c2c1NCc1ccccc1 the IC50 [1] was 3.7 µg/mL (≈ 8.61 µM), the IC50 [2] was 8.5 µg/mL (≈ 19.8 µM) and the IC50 [3] was 716 µg/mL (≈ 1670 µM). The IC50 [4] was > 1000 µg/mL and the IC50 [5] was 19.2 µg/mL (≈ 44.7 µM).

With N#Cc1c(NCc2ccccc2)c(F)c2nc(N)nc(N)c2c1F the IC50 [1] was 11 µg/mL (≈ 33.7 µM), the IC50 [2] was 14 µg/mL (≈ 42.9 µM) and the IC50 [3] was 12.9 µg/mL (≈ 39.5 µM). The IC50 [4] was > 1000 µg/mL and the IC50 [5] was 27.8 µg/mL (≈ 85.2 µM).

In the case of N#Cc1c(NCc2ccccc2)c(F)c2nc(N)nc(N)c2c1NCc1ccccc1, the IC50 [1] is reported as 2.5 µg/mL (≈ 6.05 µM), the IC50 [2] is reported as 7.2 µg/mL (≈ 17.4 µM) and the IC50 [3] is reported as 20.7 µg/mL (≈ 50.1 µM). The IC50 [4] was 13.9 µg/mL (≈ 33.6 µM) and the IC50 [5] was 13.4 µg/mL (≈ 32.4 µM).

CC(C)(C)Nc1c(C#N)c(F)c2c(N)nc(N)nc2c1F showed an IC50 [1] of 2.4 µg/mL (≈ 8.21 µM), an IC50 [2] of 18 µg/mL (≈ 61.6 µM) and an IC50 [3] of 11.9 µg/mL (≈ 40.7 µM). The IC50 [4] was > 1000 µg/mL and the IC50 [5] was 16.2 µg/mL (≈ 55.4 µM).

For CCCCNc1c(C#N)c(NCCCC)c2c(N)nc(N)nc2c1Cl, the IC50 [1] was 0.6 µg/mL (≈ 1.66 µM), the IC50 [2] was 0.7 µg/mL (≈ 1.93 µM) and the IC50 [3] was 2.5 µg/mL (≈ 6.91 µM). The IC50 [4] was 2 µg/mL (≈ 5.53 µM) and the IC50 [5] was 1.3 µg/mL (≈ 3.59 µM).

N#Cc1c(OCc2ccccc2)c(F)c2nc(N)nc(N)c2c1OCc1ccccc1 gave an IC50 [1] of 14 µg/mL (≈ 33.7 µM), an IC50 [2] of 62 µg/mL (≈ 149 µM) and an IC50 [3] of 68.3 µg/mL (≈ 164 µM). The IC50 [4] was > 1000 µg/mL and the IC50 [5] was 84 µg/mL (≈ 202 µM).

In the case of N#Cc1c(F)c(Cl)c2nc(N)nc(N)c2c1F, the IC50 [1] is reported as 0.14 µg/mL (≈ 0.548 µM), the IC50 [2] is reported as 0.04 µg/mL (≈ 0.156 µM) and the IC50 [3] is reported as 1.5 µg/mL (≈ 5.87 µM). For the same compound, the IC50 [4] was 30.8 µg/mL (≈ 120 µM), the IC50 [5] was 4.8 µg/mL (≈ 18.8 µM) and the CC50 at 72 h [6] was 3.9 µg/mL (≈ 15.3 µM). It also gave an EC50 [7] of 0.1 µg/mL (≈ 0.391 µM) and a selectivity ratio [8] of 7.

Compound CCCCNc1c(C#N)c(NCCCC)c2c(N)nc(N)nc2c1F has an IC50 [1] of 1.6 µg/mL (≈ 4.63 µM), an IC50 [2] of 1.4 µg/mL (≈ 4.05 µM) and an IC50 [3] of 1 µg/mL (≈ 2.89 µM). The IC50 [4] was > 1000 µg/mL and the IC50 [5] was 2.6 µg/mL (≈ 7.53 µM).

Work on N#Cc1c(NCc2ccccc2)c(Cl)c2nc(N)nc(N)c2c1F yielded an IC50 [1] of 0.8 µg/mL (≈ 2.33 µM), an IC50 [2] of 0.3 µg/mL (≈ 0.875 µM) and an IC50 [3] of 1.4 µg/mL (≈ 4.08 µM). The IC50 [4] was 34.1 µg/mL (≈ 99.5 µM) and the IC50 [5] was 1.4 µg/mL (≈ 4.08 µM).

In the case of CCCSc1c(C#N)c(SCCC)c2c(N)nc(N)nc2c1Cl, the IC50 [1] is reported as 1.2 µg/mL (≈ 3.26 µM), the IC50 [2] is reported as 7.7 µg/mL (≈ 20.9 µM) and the IC50 [3] is reported as 535 µg/mL (≈ 1450 µM). The IC50 [4] was > 1000 µg/mL, the IC50 [5] was > 1000 µg/mL and the CC50 at 72 h [6] was > 200 µg/mL. The EC50 [7] was 13.3 µg/mL (≈ 36.1 µM) and the selectivity ratio [8] was 11.5.

In the case of CC(C)(C)Nc1c(C#N)c(F)c2c(N)nc(N)nc2c1Cl, the IC50 [1] is reported as 2.1 µg/mL (≈ 6.8 µM), the IC50 [2] is reported as 5.2 µg/mL (≈ 16.8 µM) and the IC50 [3] is reported as 6.5 µg/mL (≈ 21.1 µM). For the same compound, the IC50 [4] was 313 µg/mL (≈ 1010 µM) and the IC50 [5] was 5.4 µg/mL (≈ 17.5 µM).
